In series [1] the target is collagenase from Clostridium histolyticum. In words: In vitro collagenase inhibition assay (spectrophotometric, FALGPA substrate). The class given is biochemical. The settings on record: mean ± SD, triplicate; 0.1 U/mL collagenase, 0.8 mM FALGPA, Tricine buffer pH 7.5, 37 °C, 20 min incubation, absorbance at 335 nm; read-out: Anti-collagenase activity IC50. The method, then: The previous spectrophotometric procedure was modified and subsequently employed to determine the anti-collagenase activity of the isolated compounds [23]. This assay was performed in 50 mM Tricine buffer (pH = 7.5; 400 mM NaCl, 10 mM CaCl2). The mixed solution included 25 µL of 0.1 U/mL collagenase from Clostridium histolyticum, 25 µL Tricine buffer, and 25 µL of various levels of the sample were incubated at 37 °C for 20 min. After incubation, 75 µL of 0.8 mM FALGPA substrate was present. Then, absorbance was measured at 335 nm wavelength. Negative control was performed using Tricine buffer instead of sample and positive control was conducted with EGCG.
The percentage inhibition for assay was calculated by: Enzyme inhibition activity (%) = [1 − […]] × 100% where C is the negative control and S is the sample.

Some results are limits rather than exact numbers.

The term melting point denotes the temperature, or range, at which the solid turns liquid. The term IC50 denotes the point on the concentration scale where inhibition reaches its midpoint. Regarding `COc1ccc(-c2cc(=O)c3c(O)cc(O)c(C4OCC(O)C(O)C4OC4OC(CO)C(O)C(O)C4O)c3o2)cc1O` [Compound 2, 5,7,3′-trihydroxy-4′-methoxyflavone-8-C-β-D-xylopyranoside-2′′-O-glucoside], the melting point was 178.5 to 179.2 °C. For the same molecule, the IC50 in series [1] was 64.9 ± 1.08 µM.

`COc1ccc(C(C)=O)c(O[C@@H]2O[C@H](CO[C@@H]3OC[C@](O)(CO)[C@H]3O)[C@@H](O)[C@H](O)[C@H]2O)c1` [Compound 5, apiopaenonside]: the IC50 in series [1] is over 125 µM.

In the case of `COc1cc(-c2cc(=O)c3c(O)cc(O)c(C4OCC(O)C(O)C4OC4OC(CO)C(O)C(O)C4O)c3o2)ccc1OC(C)=O` [Compound 3, 5,7-dihydroxy-3′-methoxy-4′-acetoxyflavone-8-C-β-D-xylopyranoside-2′′-O-glucoside], in series [1], the IC50 was found to be 48.3 ± 1.05 µM.

`CC(=O)Oc1ccc(-c2cc(=O)c3c(O)cc(O)c(C4OCC(O)C(O)C4OC4OC(CO)C(O)C(O)C4O)c3o2)cc1O` [Compound 1, 5,7,3′-trihydroxy-4′-acetoxyflavone-8-C-β-D-xylopyranoside-2′′-O-glucoside] came in with a melting point of 188.5 to 189 °C. The IC50 in series [1] worked out at 70.2 ± 1.37 µM.

Regarding `O=C(O[C@@H]1Cc2c(O)cc(O)cc2O[C@@H]1c1cc(O)c(O)c(O)c1)c1cc(O)c(O)c(O)c1` [EGCG, Epigallocatechin gallate, reference compound], the IC50 in series [1] turned out to be 34.32 ± 0.21 µM.

`COc1cc(-c2cc(=O)c3c(O)cc(O)c(C4OCC(O)C(O)C4OC4OC(CO)C(OC(C)=O)C(O)C4O)c3o2)ccc1OC(C)=O` [Compound 4, 5,7-dihydroxy-3′-methoxy-4′-acetoxyflavone-8-C-β-D-xylopyranoside-2′′-O-(4′′′-acetoxy)-glucoside] yielded a melting point of 164.6 to 166.2 °C. Also, the IC50 in series [1] is 36.1 ± 0.78 µM.

The values are drawn from PMC8468783, “New Flavone C-Glycosides from Scleranthus perennis and Their Anti-Collagenase Activity” (Molecules, 2021).
